Laboratory results reported in article PMC10377753, “Pharmacokinetic and pharmacodynamic properties of polymyxin B in Escherichia coli and Klebsiella pneumoniae murine infection models” (Journal of Antimicrobial Chemotherapy, 2023).
Where a name gives a salt, the structure may show the parent alone. Bridge positions count the residues as written; N and C are the ends. Square brackets hold non-standard residues; d marks the D form. Peptide text beside a SMILES is read from it. * marks the point of attachment. X1 = CC[C@H](C)CCCCC(=O)*; Dab = NCC[C@H](N)C(=O)O

What was measured:
E. coli isolates = experiment: Dose-response study, thigh infection model, summary over E. coli isolates; type: in vivo, Escherichia coli
Method: Experiments were carried out in the Erasmus Laboratory Animal Science Centre in Rotterdam, The Netherlands in accordance with the EU Animal Directive 2010/63/EU 2010 directive[14] (licence number AVD101002016702) as described before,[15] with approval of the institutional Animal Welfare Body. Outbred female CD-1 mice obtained from Charles River Germany, weighing 20–25 g, 7–8 weeks old, were used in the experiments. The mice were housed under standard conditions with drink and feed supplied ad libitum.
Mice were rendered neutropenic by intraperitoneal injection of cyclophosphamide of 150 and 100 mg/kg, 4 days and 1 day before infection, respectively. On the day of infection, an overnight culture of the bacteria was diluted in fresh CAMHB and incubated at 37°C for 1 or 2 h depending on the growth rate of the strain. After incubation the inoculum was diluted in CAMHB or saline for the thigh and lung infection model, respectively, in order to obtain approximately 5.0 × 10^7 cfu/mL. Mice were then infected intramuscularly in each thigh (thigh infection model) or intranasally under isoflurane anaesthesia (lung infection model), with 0.05 mL of inoculum containing approximately 2.5 × 10^6 bacteria. Analgesia was given in the form of buprenorphine directly after infection, every 12 h.
For dose–response studies, a 6 hourly dosing regimen of 1–32 mg/kg was studied in the thigh infection model. Mice were infected with E. coli […], 15, 51 or 71 or K. pneumoniae ATCC 43816, 17, 58 or 74.
Animals were humanely euthanized 24 h (t = 24 h) after the first dose, unless the welfare of the animals necessitated earlier termination, following animal welfare regulations. Excised thighs were transferred to a pre-cooled 14 mL polypropylene tube containing 2 mL of PBS and were homogenized using a T25 ULTRA-TURRAX (IKA-Werke GmbH & Co, Staufen, Germany). A 10-fold dilution series was prepared and 3 × 10 μL was plated per dilution. The following day, colonies were counted and the number of cfu per thigh was calculated.
The drug effect was determined by the difference between the log10 cfu values at t = 0 h (mean value of two mice) and t = 24 h (value of individual mice) expressed as Δlog10 cfu. The fAUC/MIC, fCmax/MIC and %fT>MIC were determined based on the simulated time–concentration profiles over 24 h as derived in MicLab 2.71 (MEDIMATICS, Maastricht, The Netherlands) using 200 points per dosing interval.
A sigmoid maximum effect (Emax) model was fitted to the PK/PD index versus Δlog10 cfu data by non-linear regression, and static or a 1 log or 2 log kill effect were determined using GraphPad Prism 8.0 (GraphPad, Inc., San Diego, CA, USA). A two-tailed unpaired t-test was performed in GraphPad Prism 8.0 to determine if there was a significant difference in the fAUC/MIC targets correlating with a static or a 1 log or 2 log decline, between E. coli and K. pneumoniae isolates.

[1] = Epithelial lining fluid (ELF) concentration from BAL, urea correction; type: in vivo; conditions: lung-infected mice
Method: Bronchoalveolar lavage (BAL) was performed immediately after blood collection. The trachea was exposed by a ventral vertical incision in the neck for insertion of a cannula. Lungs were instilled two times with 1 mL of sterile saline, and the fluid was recovered immediately. The recovered lavages were pooled, directly placed on ice, and subsequently stored at −80°C.
By taking BAL fluid samples and a plasma sample at the same timepoint, the concentrations in ELF could be determined. The ratio of the urea concentration in BAL to the concentration in plasma was used to determine the ELF concentration.[17] In short, polymyxin B concentration in ELF was calculated by multiplying the polymyxin B concentration in the BAL fluid by the ratio of the urea concentration in the plasma and BAL fluid: [polymyxin B]ELF = [polymyxin B]BAL × ([urea]Plasma/[urea]BAL). Urea concentrations were measured with an enzymatic assay (QuantiChrom urea assay kit; DIUR-100; BioAssay Systems, Hayward, CA, USA).
Polymyxin B concentrations in plasma, BAL and ultrafiltrates were determined by a validated LC-MS/MS method,[18] with a lower limit of quantification (LOQ) of 0.2 mg/L for plasma and 0.05 mg/L for BAL fluid and ultrafiltrates. […] The residues were dissolved in 0.1 mL of 0.1% formic acid in water and analysed by LC-MS/MS. […] Polymyxin B was analysed on an XBridge C18 column (5 µm, 2.1 × 150 mm; Waters). […]

gram-negative pathogens = conditions: previous studies; cited from earlier work
Method: To determine whether these targets are achieved in humans, the PTAs for the 200 mg q24h dose were calculated. It is clear that the degree of protein binding is essential herein and more clarity on the protein binding in human plasma is needed before an optimal dosing regimen can be recommended, since for a highly protein-bound drug a small error on the fu would yield important PTA differences.

[2] = two E. coli isolates in which 1 log kill was found

**Q.** Which “Isolates in which 1 log kill was found” value (E. coli isolates; E. coli isolates, mouse thigh infection) does the source give for `CC[C@H](C)CCCCC(=O)N[C@@H](CCN)C(=O)N[C@H](C(=O)N[C@@H](CCN)C(=O)N[C@H]1CCNC(=O)[C@H]([C@@H](C)O)NC(=O)[C@H](CCN)NC(=O)[C@H](CCN)NC(=O)[C@H](CC(C)C)NC(=O)[C@@H](Cc2ccccc2)NC(=O)[C@H](CCN)NC1=O)[C@@H](C)O` [polymyxin B, Polymyxin B sulphate salt] (X1-[Dab]T[Dab][Dab][Dab][dF]L[Dab][Dab]T; lactam 4-C) here?
**A.** 2/4

**Q.** And the “Target value of fAUC/MIC, static effect, average” value (E. coli isolates; average of four E. coli isolates, mouse thigh infection, q6h)?
**A.** 64.3

**Q.** What about the “Target value of fAUC/MIC, static effect, median” value (E. coli isolates; median of four E. coli isolates, mouse thigh infection, q6h) of the same molecule?
**A.** 63.5

**Q.** What about the “Target value of fAUC/MIC, static effect, range” value (E. coli isolates; range over four E. coli isolates, mouse thigh infection, q6h) of the same molecule?
**A.** 27.5–102.6

**Q.** And the “fAUC/MIC for 1 log kill, median” value (E. coli isolates; [2])?
**A.** 50.6

**Q.** And the “fAUC/MIC for 1 log kill, range” value (E. coli isolates; [2])?
**A.** 46.8–54.5

**Q.** What about the “Concentration in ELF” value ([1]; 64 mg/kg s.c., BAL, urea correction, data not shown) of the same molecule?
**A.** Low levels

**Q.** And the “Concentration in ELF” value ([1]; other doses (1, 4, 16 mg/kg s.c.), LOQ 0.05 mg/L for BAL fluid)?
**A.** below the LOQ

**Q.** And the MIC90 (gram-negative pathogens)?
**A.** 0.5 to 1 µg/mL
